Measured values as given in ChEMBL document CHEMBL1201862, “PubChem BioAssay data set” (2004).
Activity calls are given as the source filed them.

What was measured:
[1] = inhibitors of HIV Env-driven cell fusion, dose response, cherry-pick (AID 652057); type: functional, cell-based
[2] = ZM109 Env clade C HIV-1 fusion inhibitors, dose response, HeLa effector, CEM target cells, luciferase, cherry-pick (AID 652058); type: functional, cell-based
[3] = off-target signal loss in HeLa-CEM21 co-culture – HeLa F-luc CTL cells, cherry-picked, counter-screen for HIV-1 Env fusion inhibitor project, dose response (AID 652040); type: functional, cell-based;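 further: potency for signal decrease marking cytotoxic or nonspecific inhibition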
[4] = inhibitors of clade B AD8 Env fusion, dose response, cell-based, cherry-pick (AID 652062); type: functional;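 further: luciferase signal from cell-cell fusion driven by HIV-1 clade B AD8 Env; potency is for inhibitors of fusion seen as a drop in luminescence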
[5] = cells; type: functional, cell-based
[6] = cells; type: functional, cell-based; remark: listed apart in the source
[7] = biological target: T1, Short transient receptor potential channel 4 (Mus musculus, UniProt Q9QUQ5); assay: mouse TRPC4 channel inhibitors, dose response, cell-based, HEK293 TRPC4/mu-opioid, Fluo-4 calcium (AID 434942); type: functional;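 further: potency of inhibitors blocking the TRPC4 calcium response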
T1 sequence (Q9QUQ5 whole entry): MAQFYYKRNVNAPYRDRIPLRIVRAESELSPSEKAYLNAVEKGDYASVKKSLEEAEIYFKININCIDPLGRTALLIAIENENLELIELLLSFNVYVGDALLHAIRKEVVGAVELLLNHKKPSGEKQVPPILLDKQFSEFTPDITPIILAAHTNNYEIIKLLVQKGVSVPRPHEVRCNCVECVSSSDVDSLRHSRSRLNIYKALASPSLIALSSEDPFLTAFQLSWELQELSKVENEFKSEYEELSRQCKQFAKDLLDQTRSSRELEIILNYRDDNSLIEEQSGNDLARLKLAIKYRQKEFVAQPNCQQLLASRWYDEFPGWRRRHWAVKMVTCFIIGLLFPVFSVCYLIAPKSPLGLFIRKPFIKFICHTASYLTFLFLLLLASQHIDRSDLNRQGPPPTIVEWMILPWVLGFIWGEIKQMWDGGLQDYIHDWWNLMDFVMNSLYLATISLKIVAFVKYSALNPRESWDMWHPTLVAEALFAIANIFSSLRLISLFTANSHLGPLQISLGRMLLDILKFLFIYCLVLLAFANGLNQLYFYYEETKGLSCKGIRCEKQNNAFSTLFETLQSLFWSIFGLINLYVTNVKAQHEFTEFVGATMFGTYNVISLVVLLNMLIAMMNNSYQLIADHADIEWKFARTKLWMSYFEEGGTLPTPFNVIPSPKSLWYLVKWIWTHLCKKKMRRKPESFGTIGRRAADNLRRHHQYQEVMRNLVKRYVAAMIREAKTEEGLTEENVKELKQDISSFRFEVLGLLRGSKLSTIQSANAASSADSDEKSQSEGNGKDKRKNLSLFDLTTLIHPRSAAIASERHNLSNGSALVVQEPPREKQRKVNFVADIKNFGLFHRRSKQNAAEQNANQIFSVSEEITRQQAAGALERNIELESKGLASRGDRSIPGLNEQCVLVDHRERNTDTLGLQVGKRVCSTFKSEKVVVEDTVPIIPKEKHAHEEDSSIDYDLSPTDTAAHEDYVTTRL

[8] = biological target: T2, Fructose-bisphosphate aldolase (Mycobacterium tuberculosis, UniProt P9WQA3); assay: Fluorescence-based biochemical high throughput dose response assay for inhibitors of the fructose-bisphosphate aldolase (FBA) of M. tuberculosis.; type: functional
T2 sequence (P9WQA3 whole entry): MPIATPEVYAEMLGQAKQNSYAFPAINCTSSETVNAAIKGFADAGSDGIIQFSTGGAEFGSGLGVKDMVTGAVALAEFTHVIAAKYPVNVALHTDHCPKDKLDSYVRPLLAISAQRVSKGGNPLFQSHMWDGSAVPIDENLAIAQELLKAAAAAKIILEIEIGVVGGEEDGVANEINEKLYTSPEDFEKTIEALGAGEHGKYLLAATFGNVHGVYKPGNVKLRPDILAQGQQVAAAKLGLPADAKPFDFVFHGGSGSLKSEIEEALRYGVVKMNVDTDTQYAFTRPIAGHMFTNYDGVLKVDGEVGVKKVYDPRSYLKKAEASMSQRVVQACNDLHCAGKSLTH

[9] = Luminescence Cell-Based Dose Confirmation HTS to Identify Activators of 5'UTR Stem-Loop Driven Alpha-Synuclein mRNA Translation in H4 Neuroglioblastoma Cells. [Related pubchem assays: 1829 (Project Summary), 1814 (Primary HTS)]; type: functional
[10] = Luminescence Cell-Based Dose Response HTS to Identify Activators of Luciferase Translation or Activity in H4 […] Cells. [Related pubchem assays: 1829 (Project Summary), 1814 (Primary HTS)]; type: functional
[11] = tested on: H4; assay: Luminescence Cell-Based Dose Response HTS to Identify Activators of 5'UTR Stem-Loop Driven Prion Protein mRNA Translation in H4 Neuroglioblastoma Cells. [Related pubchem assays: 1829 (Project Summary), 1814 (Primary HTS)]; type: functional; conditions: Homo sapiens
[12] = cells; type: functional, cell-based; remark: listed apart in the source
[13] = biological target: T3, Nuclear receptor subfamily 0 group B member 1 (Homo sapiens, UniProt P51843); type: functional, cell-based;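 further: HEK293T cells transfected with SF-1 and DAX-1 plus StAR promoter luciferase reporter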
T3 sequence (P51843 whole entry): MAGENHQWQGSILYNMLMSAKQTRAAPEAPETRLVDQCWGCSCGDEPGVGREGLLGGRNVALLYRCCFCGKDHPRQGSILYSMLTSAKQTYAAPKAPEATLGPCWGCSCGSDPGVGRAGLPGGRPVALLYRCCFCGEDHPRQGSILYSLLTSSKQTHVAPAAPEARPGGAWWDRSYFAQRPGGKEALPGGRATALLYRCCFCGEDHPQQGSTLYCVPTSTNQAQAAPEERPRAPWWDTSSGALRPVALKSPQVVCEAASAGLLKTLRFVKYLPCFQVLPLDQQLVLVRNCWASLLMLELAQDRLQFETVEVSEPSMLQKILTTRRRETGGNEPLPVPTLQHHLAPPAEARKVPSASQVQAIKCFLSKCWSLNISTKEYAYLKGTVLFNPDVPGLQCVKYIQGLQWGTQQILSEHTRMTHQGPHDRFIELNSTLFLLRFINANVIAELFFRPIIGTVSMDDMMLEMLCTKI

[14] = biological target: T4, Cytochrome P450 1A2 (Homo sapiens, UniProt P05177);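 further: PubChem cytochrome P450 panel assay, CYP1A2 panel member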
T4 sequence (P05177 whole entry): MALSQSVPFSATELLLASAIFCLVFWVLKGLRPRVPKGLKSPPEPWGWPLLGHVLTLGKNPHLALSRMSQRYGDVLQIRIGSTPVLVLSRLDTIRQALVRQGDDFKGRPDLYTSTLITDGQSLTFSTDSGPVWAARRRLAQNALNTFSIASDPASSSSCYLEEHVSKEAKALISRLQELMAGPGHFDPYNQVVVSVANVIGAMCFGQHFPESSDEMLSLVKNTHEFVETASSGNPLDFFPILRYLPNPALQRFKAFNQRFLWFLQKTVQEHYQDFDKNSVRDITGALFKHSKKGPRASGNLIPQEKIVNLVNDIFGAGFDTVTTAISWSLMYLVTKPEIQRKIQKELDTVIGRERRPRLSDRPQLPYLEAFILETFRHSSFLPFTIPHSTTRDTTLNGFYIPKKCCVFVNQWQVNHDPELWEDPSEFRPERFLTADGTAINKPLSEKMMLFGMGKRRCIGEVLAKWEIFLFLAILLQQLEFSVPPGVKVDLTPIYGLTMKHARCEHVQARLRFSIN

[15] = biological target: Cytochrome P450 3A4 (Homo sapiens, UniProt P08684);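 further: CYP3A4 tested as one member of a cytochrome P450 panel screen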
[16] = tested on: HEK293; assay: inhibitors of LMP1-driven NF-kB reporter, dose response, cell-based, HEK293, luciferase, cherry-pick (AID 588343); type: functional; conditions: Homo sapiens
[17] = biological target: Genome polyprotein (dengue virus type 2, UniProt P29990); assay: Dengue-2 NS5 methyltransferase inhibitors, primary screen, biochemical, confirmation dose response (AID 588689); type: functional
[18] = biological target: T5, Histone-lysine N-methyltransferase NSD2 (Homo sapiens, UniProt O96028); type: biochemical
T5 sequence (O96028 whole entry): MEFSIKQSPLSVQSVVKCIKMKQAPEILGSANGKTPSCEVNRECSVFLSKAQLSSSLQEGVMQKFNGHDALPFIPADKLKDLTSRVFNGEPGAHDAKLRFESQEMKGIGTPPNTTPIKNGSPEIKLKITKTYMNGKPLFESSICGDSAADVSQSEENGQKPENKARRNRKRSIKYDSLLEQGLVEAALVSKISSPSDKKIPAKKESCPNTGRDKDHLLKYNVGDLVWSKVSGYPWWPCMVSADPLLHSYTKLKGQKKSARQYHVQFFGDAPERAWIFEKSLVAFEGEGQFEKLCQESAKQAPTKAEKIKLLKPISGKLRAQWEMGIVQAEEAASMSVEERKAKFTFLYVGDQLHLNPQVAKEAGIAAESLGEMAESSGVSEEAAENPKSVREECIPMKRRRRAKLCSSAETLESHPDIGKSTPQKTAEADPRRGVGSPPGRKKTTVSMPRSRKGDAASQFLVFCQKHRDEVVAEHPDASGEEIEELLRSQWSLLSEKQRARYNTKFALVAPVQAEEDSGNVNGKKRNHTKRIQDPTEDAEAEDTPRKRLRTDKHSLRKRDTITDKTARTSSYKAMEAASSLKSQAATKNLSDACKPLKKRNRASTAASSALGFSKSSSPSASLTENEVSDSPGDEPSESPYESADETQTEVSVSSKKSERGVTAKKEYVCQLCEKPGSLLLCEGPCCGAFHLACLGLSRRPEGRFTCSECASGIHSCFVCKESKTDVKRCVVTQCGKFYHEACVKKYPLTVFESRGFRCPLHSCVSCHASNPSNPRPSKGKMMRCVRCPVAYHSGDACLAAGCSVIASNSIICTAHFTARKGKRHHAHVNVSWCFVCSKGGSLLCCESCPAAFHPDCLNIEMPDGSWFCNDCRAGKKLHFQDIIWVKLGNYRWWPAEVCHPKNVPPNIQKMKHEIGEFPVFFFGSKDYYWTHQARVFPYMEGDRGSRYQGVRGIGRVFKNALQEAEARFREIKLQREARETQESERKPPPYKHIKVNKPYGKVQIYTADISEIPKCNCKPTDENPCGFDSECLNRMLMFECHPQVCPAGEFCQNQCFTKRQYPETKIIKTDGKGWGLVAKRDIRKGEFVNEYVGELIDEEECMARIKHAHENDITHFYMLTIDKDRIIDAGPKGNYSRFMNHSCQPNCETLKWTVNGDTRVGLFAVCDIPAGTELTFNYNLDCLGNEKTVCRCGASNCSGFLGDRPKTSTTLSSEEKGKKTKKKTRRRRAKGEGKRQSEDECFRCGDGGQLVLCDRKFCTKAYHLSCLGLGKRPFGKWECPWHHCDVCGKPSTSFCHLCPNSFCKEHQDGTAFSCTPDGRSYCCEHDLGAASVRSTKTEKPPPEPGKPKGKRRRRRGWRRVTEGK

[19] = biological target: Large T antigen (Simian virus 40, UniProt P03070); type: functional, Betapolyomavirus macacae;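 further: Confirmatory-stage PubChem screen for compounds that inhibit SV40 T antigen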
Chain of Large T antigen (P03070 whole entry): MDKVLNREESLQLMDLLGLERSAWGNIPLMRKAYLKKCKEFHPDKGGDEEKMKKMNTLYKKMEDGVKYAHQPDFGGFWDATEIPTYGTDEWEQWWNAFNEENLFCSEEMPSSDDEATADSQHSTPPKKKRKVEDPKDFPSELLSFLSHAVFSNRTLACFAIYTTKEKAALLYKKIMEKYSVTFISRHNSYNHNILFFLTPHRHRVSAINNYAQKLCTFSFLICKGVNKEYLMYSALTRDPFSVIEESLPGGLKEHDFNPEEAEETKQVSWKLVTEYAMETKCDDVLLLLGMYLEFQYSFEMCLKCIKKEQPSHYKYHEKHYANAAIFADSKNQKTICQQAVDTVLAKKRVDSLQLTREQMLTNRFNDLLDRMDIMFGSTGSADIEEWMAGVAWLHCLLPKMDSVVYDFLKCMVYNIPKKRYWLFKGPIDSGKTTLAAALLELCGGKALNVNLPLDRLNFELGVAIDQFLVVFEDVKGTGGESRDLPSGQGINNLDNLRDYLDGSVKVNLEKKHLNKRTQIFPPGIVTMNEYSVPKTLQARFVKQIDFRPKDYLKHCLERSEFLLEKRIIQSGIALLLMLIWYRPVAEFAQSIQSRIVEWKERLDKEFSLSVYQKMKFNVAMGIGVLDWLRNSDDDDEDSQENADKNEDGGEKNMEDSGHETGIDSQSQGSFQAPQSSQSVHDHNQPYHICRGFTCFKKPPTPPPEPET

Chain of Genome polyprotein (P29990 2492-3391 limits assumed): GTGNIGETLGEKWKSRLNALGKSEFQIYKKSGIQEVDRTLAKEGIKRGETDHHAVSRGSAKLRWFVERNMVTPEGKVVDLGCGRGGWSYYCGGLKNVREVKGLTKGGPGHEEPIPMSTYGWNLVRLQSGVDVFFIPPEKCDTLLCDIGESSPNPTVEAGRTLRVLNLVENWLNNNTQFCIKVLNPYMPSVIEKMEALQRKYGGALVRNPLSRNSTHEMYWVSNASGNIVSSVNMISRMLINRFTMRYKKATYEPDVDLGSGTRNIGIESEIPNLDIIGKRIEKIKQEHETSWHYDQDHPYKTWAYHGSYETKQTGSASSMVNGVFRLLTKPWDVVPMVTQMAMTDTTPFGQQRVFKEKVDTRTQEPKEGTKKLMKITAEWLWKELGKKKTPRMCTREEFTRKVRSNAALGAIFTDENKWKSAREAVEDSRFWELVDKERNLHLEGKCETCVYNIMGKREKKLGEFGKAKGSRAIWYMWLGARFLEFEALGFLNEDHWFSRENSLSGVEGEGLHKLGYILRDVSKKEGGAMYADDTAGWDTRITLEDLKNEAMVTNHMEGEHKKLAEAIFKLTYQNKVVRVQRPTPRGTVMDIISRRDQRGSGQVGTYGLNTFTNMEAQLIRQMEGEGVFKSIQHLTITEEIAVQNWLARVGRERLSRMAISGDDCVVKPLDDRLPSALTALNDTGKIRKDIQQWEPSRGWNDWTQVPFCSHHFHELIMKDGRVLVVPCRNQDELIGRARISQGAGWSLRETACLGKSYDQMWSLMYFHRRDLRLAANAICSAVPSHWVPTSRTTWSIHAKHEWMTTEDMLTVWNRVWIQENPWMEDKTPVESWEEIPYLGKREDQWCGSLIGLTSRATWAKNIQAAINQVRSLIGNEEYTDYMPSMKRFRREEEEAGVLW
Chain of Cytochrome P450 3A4 (P08684 whole entry): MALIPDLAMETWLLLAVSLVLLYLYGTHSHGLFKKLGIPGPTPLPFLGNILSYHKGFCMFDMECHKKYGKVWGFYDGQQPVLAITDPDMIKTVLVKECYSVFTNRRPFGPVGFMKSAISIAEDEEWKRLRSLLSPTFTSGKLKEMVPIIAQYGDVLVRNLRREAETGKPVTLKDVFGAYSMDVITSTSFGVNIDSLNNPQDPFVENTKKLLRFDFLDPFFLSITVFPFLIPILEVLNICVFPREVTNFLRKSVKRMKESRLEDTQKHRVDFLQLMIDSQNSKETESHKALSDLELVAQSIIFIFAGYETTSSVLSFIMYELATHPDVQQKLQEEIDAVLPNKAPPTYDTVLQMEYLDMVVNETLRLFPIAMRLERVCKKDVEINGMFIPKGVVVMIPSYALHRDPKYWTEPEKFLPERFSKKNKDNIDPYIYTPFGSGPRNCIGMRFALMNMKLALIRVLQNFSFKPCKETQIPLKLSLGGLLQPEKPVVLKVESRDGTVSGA

## CCOC(=O)c1c(C)[nH]c(C)c1C(=O)COC(=O)[C@@H](NC(=O)c1ccccc1OCC)C(C)C
[1]
  AC50: 3.71 µM (active)
[2]
  AC50: 2.71 µM (active)
[3]
  AC50: 5.72 µM (active)
[4]
  AC50: 2.19 µM (active)

## CCOC(=O)C(NCCc1ccccc1F)(NC(=O)CC)C(F)(F)F (stereo not drawn)
[5]
  IC50: > 29.9 µM (inactive)
[6]
  EC50: > 29.9 µM (inactive)

## Oc1ccc(CN2CCCCC2)nc1-c1ccccc1
[7]
  EC50: 4.73 µM (active)
[8]
  IC50: 3.34 µM (active)

## N#Cc1cc(-c2cccc(Cl)c2)cnc1O
[8]
  IC50: 2.29 µM (active)

## CCOC(=O)N1CCN(C(=O)c2ccc3oc(CCCc4ccccc4)nc3c2)CC1
[9]
  EC50: 579 nM (active)
[10]
  EC50: 436 nM (active)
[11]
  EC50: 2.2 µM (active)
[12]
  IC50: > 67.5 µM (inactive)
[13]
  IC50: > 67.5 µM (inactive)

## CCn1nc2cc(C(=O)NCC34CC5CC(CC(C5)C3)C4)ccc2c1OC
[8]
  IC50: 1.94 µM (active)
[14]
  AC50: 12.6 µM (inconclusive)
[15]
  AC50: inconclusive

## C=CCNC1=NN=C(c2cc(C)n(CCOC)c2C)CS1
[16]
  AC50: 2.08 µM (active)
[1]
  AC50: 1.56 µM (active)
[2]
  AC50: 8.09 µM (active)
[3]
  AC50: 3.9 µM (active)
[4]
  AC50: 4.19 µM (active)

## NC(=O)C1CCN(C(=O)CCNS(=O)(=O)c2ccccc2F)CC1
[8]
  IC50: > 9.99 µM (inactive)

## Cc1ccc(S(=O)(=O)/N=C2\C=C(NS(=O)(=O)c3ccc(C)cc3)C(=O)c3ccccc32)cc1
[17]
  IC50: 30.6 µM (active)
[18]
  AC50: 2.98 µM (active)

## Cc1cc(N/N=C/c2ccc(O)cc2O)nc(N2CCOCC2)n1
[19]
  IC50: > 100 µM (active)
[5]
  IC50: > 29.9 µM (inactive)
[6]
  EC50: > 29.9 µM (inactive)
